In the supplement of paper PMC10307832:

Key:
Assay in all cases: relative viability (nuclei count vs DMSO), 5 days (fraction); higher = more cells survive
Trametinib = compound: CC(=O)Nc1cccc(-n2c(=O)n(C3CC3)c(=O)c3c(Nc4ccc(I)cc4F)n(C)c(=O)c(C)c32)c1 [Trametinib]
Summary of the method: (§1)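 Lung cancer cell lines in 1536-well plates were exposed by pinning to five library-drug doses (not always all listed) √10 apart, following an overnight hold at 37 °C. MetaXpress counted Hoechst-stained nuclei from 4× images taken after 5 days without medium change. Viability is the median ratio of treated-well to vehicle-well nuclei across plates. Plates required control CV below 25% and at least one doubling.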

[1] = compound: CN1C=C(C2=CC=CC=C21)/C=C\3/C4=C(C=CC=N4)NC3=O
Summary of the method: as §1

Trametinib + Navitoclax = compound: CC(=O)Nc1cccc(-n2c(=O)n(C3CC3)c(=O)c3c(Nc4ccc(I)cc4F)n(C)c(=O)c(C)c32)c1 [Trametinib] + CC1(C)CCC(c2ccc(Cl)cc2)=C(CN2CCN(c3ccc(C(=O)NS(=O)(=O)c4ccc(N[C@H](CCN5CCOCC5)CSc5ccccc5)c(S(=O)(=O)C(F)(F)F)c4)cc3)CC2)C1 [Navitoclax] (partner 0.5 µM)
Summary of the method: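 After 5 days of treatment, lung cancer cells in 1536-well plates were fixed and stained in a single step (final 0.05% Triton X-100, 1% formaldehyde, 1 ug/ml Hoechst) and their nuclei counted on 4× images. Treatment had been applied by pin tool the day after seeding as one drug alone or as a fixed anchor-drug dose with five library-drug doses (not always all listed) in √10 steps. Relative viability is the nuclei count of treated wells divided by that of vehicle wells, and values are medians of duplicate plates.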

Cell Line: UMC-11
- relative viability (Trametinib; 0.0025 µM): 0.931
- relative viability (Trametinib; 0.007906 µM): 1.03
- relative viability (Trametinib; 0.02 µM, anchor plate): 0.722
- relative viability (Trametinib; 0.025 µM): 0.658
- relative viability (Trametinib; 0.07906 µM): 0.92
- relative viability (Trametinib; 0.25 µM): 0.985
- relative viability ([1]; 0.02 µM): 0.876
- relative viability ([1]; 0.06325 µM): 0.884
- relative viability ([1]; 0.2 µM): 0.771
- relative viability ([1]; 0.6325 µM): 0.968
- relative viability ([1]; 2 µM): 1.17
- relative viability (Trametinib + Navitoclax; first compound 0.0025 µM): 0.305
- relative viability (Trametinib + Navitoclax; first compound 0.007906 µM): 0.32
- relative viability (Trametinib + Navitoclax; first compound 0.025 µM): 0.288
- relative viability (Trametinib + Navitoclax; first compound 0.07906 µM): 0.266
- relative viability (Trametinib + Navitoclax; first compound 0.25 µM): 0.263
